We go through ten molecules from patent publication US20150231209A1, “STIMULATION OF OVARIAN FOLLICLE DEVELOPMENT AND OOCYTE MATURATION” (THE BOARD OF TRUSTEES OF THE LELAND STANFORD JUNIOR …, priority 2012, published 2015).

The test system of one assay is oocytes. The settings on record: intrabursal treatment; cited from earlier work.
The next assay relates to ovaries from day 10 mice. Put plainly: Ovarian explant cultures: ovarian weight and follicle dynamics. The assay is classed as cell-based. The settings on record: for ovarian explant weights: explants from day 10 mice cultured with CCN growth factors for 4 days. As to the method:
FIG. 2. […] A, Ovarian fragmentation increased F-actin levels. Paired ovaries from day 10 mice were cut into 3 pieces or kept intact before immunoblotting analyses of F- and G-actin levels (upper panel). Lower panel: F- to G-actin ratios. N=6-11. B, Ovarian fragmentation decreased phospho-YAP(pYAP) levels and pYAP to total YAP ratios. Paired ovaries with or without cutting were incubated for 1 h, followed by immunoblotting. Left panel: representative immunoblots; Right panel: ratios of different antigens. n=8 pairs. C, Ovarian fragmentation increased expression of CCN growth factors and BIRC apoptosis inhibitors. Paired ovaries with or without cutting were incubated for 1 h […] before analyses of transcript levels normalized by GAPDH. Intact ovaries: solid lines; pooled 3 pieces: dashed lines. n=10-15. D, Ovarian fragmentation increased CCN2 proteins. Paired ovaries with or without cutting were incubated for 3-5 h before immunoblotting. Upper panel: representative blots; lower panel: quantitative analyses. N=3-5. E, Treatment with CCN2, 3, 5, and 6 increased ovarian explant weights. Explants from day 10 mice were cultured with different CCN growth factors for 4 days before weighing. n=5-6. Mean±SEM; * p<0.05. IN=Intact; PI=Pieces.
FIG. 6. Increased expression of CCN growth factors and BIRO inhibitors after ovarian fragmentation and the ability of CCN growth factors to promote follicle development. A, Ovarian fragmentation without subsequent grafting increased the expression of key CCN growth factors (CCN2, 3, 5, and 6) and apoptosis inhibitors (BIRC1 and 7). Paired ovaries from day 10 mice with or without cutting into 3 pieces were incubated for up to 7 h before analyses of transcript levels for different genes. Intact ovaries: solid lines; three pieces: dashed lines. n=10-15. B, Increases in CCN2 expression in somatic cells of fragmented ovaries. Paired ovaries from day 10 mice with or without cutting into 3 pieces were cultured for 1 h and then transplanted under kidney capsules. At 3 h after transplantation, ovaries were dissected followed by isolation of oocytes and somatic cells as previously described (2). CCN2 and GAPDH mRNA levels were measured by real-time RT-PCR (n=4). *, P<0.05 vs intact. C. Treatment with CCN growth factors promoted preantral follicle development in ovarian explants. Following explant cultures with different CCN growth factors, follicle dynamics were determined by counting the percentages of follicles at different developmental stages. Mean±SEM; *p<0.05, n=5.
Ovaries from day 10 mice were placed on culture plate insert (Millipore) and cultured in DMEM/F12 containing 0.1% BSA, 0.1% Albumax II, insulin-transferrin-selenium, 0.05 mg/ml L-ascorbic acid and penicillin-streptomycin for 4 days with medium changes after 2 days of culture as described. At the end of culture, ovarian weight was measured and some of the ovaries were embedded for histological analyses of follicle dynamics.
We tested the ability of S1P to promote follicle growth. […] We hypothesized that S1P acts through its receptors in granulosa cells to trigger actin polymerization, disrupt Hippo signaling and promote follicle growth.

A further assay relates to ovarian grafts. The experiment in a line: Ovarian grafting under kidney capsule of FSH-treated hosts: graft weights and follicle counting. Format: in vivo, mice. Here is the method:
FIG. 3. Additive effects of Hippo signaling disruption and Akt stimulation promoted secondary follicle growth. A) Secondary follicles are responsive to IVA treatment. Secondary follicles (115 um in diameter) were isolated from mice at day 10 of age and cultured in vitro with the standard IVA protocol (first day with bPV(hopic) at 3 mM and 740YP at 15 ug/ml, followed by one more day with 740YP alone), followed by treatment with daily FSH (100 ng/ml) for two more days (IVA+FSH). The control groups were either treatment with media alone for four days or treated with the IVA reagent for two days followed by media alone (IVA alone). B) Ovarian fragmentation and IVA treatment led to additive effects on ovarian weight gain and secondary follicle growth. Paired ovaries from mice at day 10 of age were fragmented into three pieces. Fragments from one side were treated with the IVA protocol (bpV(hopic) at 30 uM and 740YP at 150 ng/ml for one day, followed by one more day with 740YP only) whereas fragments from the contralateral side were incubated in media alone. Ovarian fragments were then allo-transplanted into kidney capsules of adult ovariectomized mice with hosts injected with FSH (daily at 1 IU/animal). Five 5 days later, ovarian grafts were retrieved, fixed and weighted. Left panel: graft weights; right panel: Follicle dynamics of grafted ovarian fragments. Percentages of follicles at different stages were determined based on serial sections of grafts. C, Follicle dynamics before and after grafting of intact and fragmented murine ovaries with or without treatment with Akt stimulators. Left: total follicle numbers, Right: follicle dynamics. n=4. Same letter symbols indicate significant differences (p<0.05). D-F. Vitrified human cortical strips were thawed and fragmented into cubes before treatment with Akt stimulators for 2 days followed by grafting into immune-deficient mice for 4 weeks. D. Cortical strips before grafting. Arrow: a secondary follicle, arrowheads: primordial/primary follicles. Scale bar, 100 μm. E. A kidney graft in situ (left) and after isolation (right), showing an antral follicle. F. Histology of two large antral follicles with the side view of one showing an oocyte at the germinal vesicle stage (arrow). Scale bar, 1 mm. Mean±SEM; * p<0.05.
(§1) FIG. 7. Pre-treatment with verteporfin and CCN2 antibodies suppressed fragmentation-induced ovarian growth. A, Pretreatment with verteporfin suppressed fragmentation-induced increases in CCN2, but not AMH, transcript levels. Juvenile mice were injected i.p. with verteporfin for 3 h before retrieving ovaries for fragmentation. At 4 h after incubation, transcript levels for CCN2 and AMH were determined by real-time RT-PCR. n=6-12. […] Ovaries from juvenile mice pre-injected with verteporf in for 3 h were fragmented and incubated for 1 h before grafting into FSH-treated hosts for 5 days followed by determination of graft weights. Numbers in parentheses are number of samples used. C, Follicle dynamics of intact and fragmented ovarian grafts from animals with or without verteporf in (VP) pretreatment. n=3-5. D, Incubation of fragmented ovaries with CCN2 antibodies suppressed ovarian weight increases. Paired ovaries were fragmented into 3 pieces followed by incubation with CCN2 antibodies or non-immune-IgG for 18 h before grafting for 5 days. Mean±SEM; *p<0.05.
Left upper panel: Paired ovaries from day 10 mice were treated with or without JASP (10 μM) for 30 min. before analyses of F- and G-actin content. Left lower panel: Real-time RT-PCR analyses of CCN2 transcript levels after 30 min. exposure to JASP. Right panel: Immunoblotting analyses of CCN2 protein levels after 30 min. treatment with JASP. Upper panel: Immunoblotting analyses. Lower panel: quantitative analyses of densitometric scanning data. Numbers in parentheses are number of samples used. * p<0.05. […]

The target in the next assay is PTEN (Homo sapiens, UniProt P60484). To be noted: read-out: IC50, inhibits PTEN; cited from earlier work.
The test system of a further assay is CCN2 transcripts. The experiment in a line: Real-time RT-PCR of CCN2 transcripts after verteporfin pretreatment and ovarian fragmentation. The assay is classed as in vivo. The settings on record: day 10 mice injected i.p. for 3 h before fragmentation; 4 h after incubation. Here is the method: as §1
(§2) Roles of Hippo signaling and CCN2 in fragmentationinduced follicle growth: YAP has no transcriptional activity and its actions are dependent on downstream transcriptional factors. […]

For the next assay, the system named is AMH transcripts. Put plainly: Real-time RT-PCR of AMH transcripts after verteporfin pretreatment and ovarian fragmentation. The settings on record: day 10 mice injected i.p. for 3 h before fragmentation; 4 h after incubation. The assay is classed as in vivo. As to the method:
as §1, §2
In general terms: In qPCR the cycle at which signal appears reflects the starting amount.

The mark [1] stands for this setting: pretreatment for 3 h, grafting 5 days.

Sequence of PTEN (P60484 whole entry, the tested form may be a part): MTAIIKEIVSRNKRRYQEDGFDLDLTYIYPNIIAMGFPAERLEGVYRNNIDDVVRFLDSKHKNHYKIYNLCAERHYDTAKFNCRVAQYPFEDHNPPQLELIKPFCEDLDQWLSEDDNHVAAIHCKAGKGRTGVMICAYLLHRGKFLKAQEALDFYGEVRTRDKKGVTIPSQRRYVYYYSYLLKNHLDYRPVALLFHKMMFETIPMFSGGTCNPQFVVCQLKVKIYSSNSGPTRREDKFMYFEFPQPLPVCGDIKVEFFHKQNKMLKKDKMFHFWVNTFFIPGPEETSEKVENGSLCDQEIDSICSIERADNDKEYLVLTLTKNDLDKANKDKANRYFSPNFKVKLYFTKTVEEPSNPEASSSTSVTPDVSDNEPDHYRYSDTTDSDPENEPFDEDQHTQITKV

Consider `CCCCCCCCCCCCC/C=C/[C@@H](O)[C@@H](N)COP(=O)(O)O` [S1P, sphingosine 1-phosphate], for which, in the assay with oocytes, the “oocyte apoptosis induced by X-irradiation” value is listed as “suppressed”. The “ovarian weights in explant culture” value in the assay with ovaries from day 10 mice (6 μM, 4 days, ovaries from day 10 mice) was “major increases in ovarian weights”. Moreover, the graft weights result in the assay on ovarian grafts (6 μM S1P for 18 h, grafting into adult ovariectomized hosts for 5 days) is listed as “increases in graft weights”.
Broadly, the IC50 is the concentration that gives 50% inhibition. With `O=C([O-])c1ccccn1.OO.OO.[K+].[K+].[OH-].[V]` [dipotassium bisperoxo(picolinato)oxovanadate (V)], the IC50 at PTEN was 31 nM.
Take `OO.OO.[K+].[OH-].[V].c1cnc2c(c1)ccc1cccnc12` [potassium bisperoxo (1,10-phenanthroline)oxovanadate (V)]: on PTEN, the IC50 was 38 nM.
For the molecule “dipotassium bisperoxo(5-hydroxypyridine-2-carboxyl)oxovanadate (V)”, the IC50 at PTEN was 14 nM.
Turning to “potassium bisperoxo(bipyridine)oxovanadate (V)”, the IC50 at PTEN is 18 nM.
As for verteporfin, the “fragmentation-induced increases in CCN2 transcripts” value with CCN2 transcripts is reported as “blocked”. In the assay with AMH transcripts, the “transcripts for anti-Müllerian hormone (AMH)” value is “without affecting”. For the same molecule, in the assay on ovarian grafts (pretreatment for 3 h, fragmentation, grafting into FSH-treated hosts for 5 days), the “graft weights, intact versus fragmented pairs” value is recorded as “no significant changes”. Further, in the assay with ovarian grafts (setting [1]), the antral/preovulatory follicles entry is reported as “smaller suppression”, the “fragmentation induced increases in late secondary follicles” value is listed as “prevented” and the “total follicles in grafts” value was “no loss of total follicles”.

B1: CCN2: CCN growth factor protein, acts downstream of disrupted Hippo signaling (protein, UniProt P29279 27-349, looked up)
CCN family member 2: QNCSGPCRCPDEPAPRCPAGVSLVLDGCGCCRVCAKQLGELCTERDPCDPHKGLFCHFGSPANRKIGVCTAKDGAPCIFGGTVYRSGESFQSSCKYQCTCLDGAVGCMPLCSMDVRLPSPDCPFPRRVKLPGKCCEEWVCDEPKDQTVVGPALAAYRLEDTFGPDPTMIRANCLVQTTEWSACSKTCGMGISTRVTNDNASCRLEKQSRLCMVRPCEADLEENIKKGKKCIRTPKISKPIKFELSGCTSMKTYRAKFCGVCTDGRCCTPHRTTTLPVEFKCPDGEVMKKNMMFIKTCACHYNCPGDNDIFESLYYRKMYGDMA
Consider B1, for which, in the assay on ovaries from day 10 mice, the ovarian explant weights result is “dose-dependent increases”.

B2: CCN3: CCN growth factor protein (protein, UniProt P48745 32-357, looked up)
CCN family member 3: TQRCPPQCPGRCPATPPTCAPGVRAVLDGCSCCLVCARQRGESCSDLEPCDESSGLYCDRSADPSNQTGICTAVEGDNCVFDGVIYRSGEKFQPSCKFQCTCRDGQIGCVPRCQLDVLLPEPNCPAPRKVEVPGECCEKWICGPDEEDSLGGLTLAAYRPEATLGVEVSDSSVNCIEQTTEWTACSKSCGMGFSTRVTNRNRQCEMLKQTRLCMVRPCEQEPEQPTDKKGKKCLRTKKSLKAIHLQFKNCTSLHTYKPRFCGVCSDGRCCTPHNTKTIQAEFQCSPGQIVKKPVMVIGTCTCHTNCPKNNEAFLQELELKTTRGKM
Take B2: the ovarian explant weights entry in the assay on ovaries from day 10 mice was “dose-dependent increases”.

B3: CCN6: CCN growth factor protein (protein, UniProt O95389 24-354, looked up)
Cellular communication …: TGPLDTTPEGRPGEVSDAPQRKQFCHWPCKCPQQKPRCPPGVSLVRDGCGCCKICAKQPGEICNEADLCDPHKGLYCDYSVDRPRYETGVCAYLVAVGCEFNQVHYHNGQVFQPNPLFSCLCVSGAIGCTPLFIPKLAGSHCSGAKGGKKSDQSNCSLEPLLQQLSTSYKTMPAYRNLPLIWKKKCLVQATKWTPCSRTCGMGISNRVTNENSNCEMRKEKRLCYIQPCDSNILKTIKIPKGKTCQPTFQLSKAEKFVFSGCSSTQSYKPTFCGICLDKRCCIPNKSKMITIQFDCPNEGSFKWKMLWITSCVCQRNCREPGDIFSELKIL
In the case of B3, in the assay with ovaries from day 10 mice, the ovarian explant weights result was “dose-dependent increases”.

B4: CCN5: CCN growth factor protein (protein, UniProt O76076 24-250, looked up)
CCN family member 5: QLCPTPCTCPWPPPRCPLGVPLVLDGCGCCRVCARRLGEPCDQLHVCDASQGLVCQPGAGPGGRGALCLLAEDDSSCEVNGRLYREGETFQPHCSIRCRCEDGGFTCVPLCSEDVRLPSWDCPHPRRVEVLGKCCPEWVCGQGGGLGTQPLPAQGPQFSGLVSSLPPGVPCPEWSTAWGPCSTTCGLGMATRVSNQNRFCRLETQRRLCLSRPCPPSRGRSPQNSAF
B4: in the assay on ovaries from day 10 mice, the ovarian explant weights result was “dose-dependent increases”.
